# Results: patent US4291164A, “Cephalosporin analogs and methods for production thereof” (Kyowa Hakko Kogyo Co., Ltd., priority 1978, dated 1981)
# Columns and labels:
# [1] = J. Am. Chem. Soc. 96, 7584 (1974); J. Med. Chem. 20, 551; cited from earlier work
# [2] = test system: Vibrio percolans KY4174; assay: Antibacterial activity, regular agar dilution, Vibrio percolans KY4174; type: cell-based; conditions: Comamonas terrigena, pH 7.0
# Experimental: (§1) The antibacterial activity of (±)-cis-2-carboxy-7-[2-(thiophene-2-yl)acetylamino]-1-azabicyclo[4,2,0]oct-2-en-8-one obtained in Example 21 above is set forth below. The activity is determined by the regular agar dilution at pH 7.0.
# [3] = test system: Erwinia aroides KY3241; assay: Antibacterial activity, regular agar dilution, Erwinia aroides KY3241; type: cell-based; conditions: pH 7.0
# Experimental: as §1
# [4] = test system: Staphylococcus aureus KY4279; assay: Antibacterial activity, regular agar dilution, Staphylococcus aureus KY4279; type: cell-based; conditions: pH 7.0
# Experimental: as §1
# [5] = test system: Escherichia coli KY4271; assay: Antibacterial activity, regular agar dilution, Escherichia coli KY4271; type: cell-based; conditions: pH 7.0
# Experimental: as §1
# [6] = test system: Bacillus subtilis KY4273; assay: Antibacterial activity, regular agar dilution, Bacillus subtilis KY4273; type: cell-based; conditions: pH 7.0
# Experimental: as §1
# [7] = test system: Proteus vulgaris KY4277; assay: Antibacterial activity, regular agar dilution, Proteus vulgaris KY4277; type: cell-based; conditions: pH 7.0
# Experimental: as §1
# [8] = test system: Shigella sonnei KY4281; assay: Antibacterial activity, regular agar dilution, Shigella sonnei KY4281; type: cell-based; conditions: pH 7.0
# Experimental: as §1
# [9] = test system: Salmonella typhosa KY4278; assay: Antibacterial activity, regular agar dilution, Salmonella typhosa KY4278; type: cell-based; conditions: Salmonella enterica, pH 7
# Experimental: as §1
# [10] = test system: Klebsiella penumoniae KY4275; assay: Antibacterial activity, regular agar dilution, Klebsiella penumoniae KY4275; type: cell-based; conditions: pH 7.0
# Experimental: as §1
Compound,antibacterial activity (in words) [1],MIC [2],MIC [3],MIC [4],MIC [5],MIC [6],MIC [7],MIC [8],MIC [9],MIC [10]
CC(=O)OCC1=C(C(=O)O)N2C(=O)C(NC(=O)Cc3cccs3)C2CC1 (racemic) [(±)-1-carbacephalotin],having antibacterial activity,–,–,–,–,–,–,–,–,–
"O=C(Cc1cccs1)NC1C(=O)N2C(C(=O)O)=CCCC12 (stereo not drawn) [Example 21, (±)-cis-2-carboxy-7-[2-(thiophene-2-yl)acetylamino]-1-azabicyclo[4,2,0]oct-2-en-8-one]",–,2 mg/L,1 mg/L,1 mg/L,8 mg/L,2 mg/L,8 mg/L,8 mg/L,1 mg/L,4 mg/L
